Experimental findings from patent publication US10517849B2, “LSD1 inhibitors and medical uses thereof” (Constellation Pharmaceuticals, Inc., priority 2016, dated 2019) are described below.

One assay addresses LSD1 (Homo sapiens (Human), UniProt O60341). In words: LSD1 TR-FRET Assay. Format: biochemical. The settings on record: biotinylated H3K4me1 peptide 4 μM, 10 nM LSD1, 40 nM FAD, 50 minutes at room temperature. The protocol:
LSD1 demethylase reactions were carried out in 50 mM HEPES pH 7.4, 100 mM NaCl, 1 mM DTT, 0.01% Tween-20, and 0.1 mg/mL BSA. All enzymatic reactions were performed for 50 minutes at room temperature in a 10-μL volume. Five microliters of 8 μM biotinylated H3K4me1 peptide solution was added to each well of a black 384 well, clear-bottom assay plate containing 80 nL compound (final concentration of 0.8% DMSO and 4 μM substrate). Reactions were initiated by the addition of a mixture containing 20 nM LSD1 and 80 nM FAD (5 μL). LSD1 and FAD final concentrations were 10 and 40 nM, respectively. Enzyme activity was stopped by the addition of 90 μL of high salt buffer consisting of 50 mM HEPES pH 7.4, 500 mM NaCl, 1 mM DTT, 0.01% Tween-20, and 0.1 mg/mL BSA. Ten microliters of the quenched reaction mixtures were transferred to a black 384 well ProxiPlate. Ten microliters of detection mixture was added to the ProxiPlate, Europium-labeled antibody and Streptavidin APC were used at final concentrations of 0.3 nM and 200 nM, respectively (total assay volume of 20 μL). Capture of the product peptide by the anti-H3K4me0 antibody and Streptavidin APC was allowed to proceed for 60 min at room temperature before measuring the TR-FRET signal. Plates were read on a Perkin Elmer EnVision. Percent inhibition was calculated using Max (no inhibitor) and Min (quenched with stop buffer) controls and inhibition curves plotted to determine IC50 values.

For another assay, the system named is Kasumi-1. The assay is described as follows: Kasumi-1 GI50 Assay. Format: cell-based. The settings on record: Homo sapiens, 288 h; Kasumi-1 cells, 12 days, Cell Titer-Glo viability. The protocol: Cells were plated at 5,000 cells per well in 96 well tissue culture dishes containing tool compounds arrayed in a 10-point dose curve, ranging from […] with 4-fold dilutions, and split every fourth day at a fixed ratio to re-establish 5,000 cells/well density for DMSO-treated controls. Cell treatments were carried out for a total of 12 days. At each 4-day split, the viable cell numbers were determined using the Cell Titer-Glo luminescent cell viability assay (Promega, Madison, Wis. USA) using an EnVision® Multilabel Plate Reader (Perkin Elmer, Waltham, Mass. USA). GraphPad Prism 6 (GraphPad Software, Inc., La Jolla, Calif. USA) was used for curve fitting and determination of GI50 values.
(ATP-based viability assays read luminescence as a measure of living cells.)

Assay [1] relates to LY-96 mRNA induction in MV4-11 cells. In words: LSD1 LY96 Quantigene Assay. To be noted: Homo sapiens, 16 h, Quantigene 2.0. The assay is classed as cell-based. The protocol:
MV4-11 cells were cultured at a density of 4×10^4 cells per well in a 96-well plates and treated with various doses inhibitor starting from 10 μM up to 0.0005 μM for 16 h. The LY-96 mRNA induction was quantified using the Quantigene 2.0 system (Affymetrix). The cells were lysed with Lysis Mixture containing Proteinase K. The working reagent for capturing the RNA was prepared according to the steps detailed in “Capturing Target RNA from Cultured Cell or Blood Lysates” in the Quantigene handbook. The subsequent hybridization with LY-96 probe, signal amplification and detection steps were performed as described in the manual. The chemiluminescence was read using Envision (PerkinElmer) and Abase (IDBS software) was used to plot the dose response curves and calculate IC50.

Each structure is given as a SMILES string. pEC50, pIC50: −log10 of the molar value. Where a name gives a salt, the structure may show the parent alone.

For the compound `CC/C(=C\c1ccccc1)[C@@H]1C[C@H]1NC1CC2(CCN(CCS(N)(=O)=O)CC2)C1` [Compound 23, 2-(2-(((1R,2S)-2-((E)-1-phenylbut-1-en-2-yl)cyclopropyl)amino)-7-azaspiro[3.5]nonan-7-yl)ethanesulfonamide dihydrochloride], the pIC50 against LSD1 is above 7.00. For the same compound, the GI50 in the assay on Kasumi-1 is below 100 nM. The compound further showed a pEC50 in assay [1] above 7.00.
On LSD1, `CC/C(=C\c1ccccc1)[C@@H]1C[C@H]1NC1CC2(C1)CN(CCO)C2` [Compound 1, 2-(6-(((1R,2S)-2-((E)-1-phenylbut-1-en-2-yl)cyclopropyl)amino)-2-azaspiro[3.3]heptan-2-yl)ethanol] had a pIC50 above 7.00. Moreover, the concentration for 50% growth inhibition (GI50) with Kasumi-1 is below 100 nM. In addition, the pEC50 in assay [1] was above 7.00.
Regarding `CC/C(=C\c1ccccc1)[C@@H]1C[C@H]1NC1CC2(C1)CN(CCC(N)=O)C2` [Compound 22, 3-(6-(((1R,2S)-2-((E)-1-phenylbut-1-en-2-yl)cyclopropyl)amino)-2-azaspiro[3.3]heptan-2-yl)propanamide bis(2,2,2-trifluoroacetate)], the pIC50 against LSD1 is above 7.00. Further, in the assay on Kasumi-1, the GI50 was below 100 nM. Further, the pEC50 in assay [1] is above 7.00.
With `CC/C(=C\c1ccccc1)[C@@H]1C[C@H]1NC1CC2(C1)CN(CCNS(C)(=O)=O)C2` [Compound 4, N-(2-(6-(((1R,2S)-2-((E)-1-phenylbut-1-en-2-yl)cyclopropyl)amino)-2-azaspiro[3.3]heptan-2-yl)ethyl)methanesulfonamide bis(2,2,2-trifluoroacetate)], the negative-log IC50 (pIC50) against LSD1 was above 7.00. In the assay on Kasumi-1, the GI50 is below 100 nM. Also, the pEC50 in assay [1] was above 7.00.
With `CC/C(=C\c1ccccc1)[C@@H]1C[C@H]1NC1CC2(C1)CN(CCS(N)(=O)=O)C2` [Compound 32], the negative-log IC50 (pIC50) against LSD1 was above 7.00. Moreover, the GI50 with Kasumi-1 was below 100 nM. The compound also had a pEC50 in assay [1] above 7.00.
The compound `CC/C(=C\c1ccccc1)[C@@H]1C[C@H]1NC1CC2(CCN(CCOC)CC2)C1` [Compound 17, 7-(2-methoxyethyl)-N-((1R,2S)-2-((E)-1-phenylbut-1-en-2-yl)cyclopropyl)-7-azaspiro[3.5]nonan-2-amine dihydrochloride] had a pIC50 against LSD1 above 7.00. Also, the 50% growth inhibitory concentration (GI50) in the assay on Kasumi-1 is below 100 nM. This compound showed a pEC50 in assay [1] above 7.00.
The compound `CC/C(=C\c1ccccc1)[C@@H]1C[C@H]1NC1CC2(CCN(CCO)CC2)C1` [Compound 11, 2-(2-(((1R,2S)-2-((E)-1-phenylbut-1-en-2-yl)cyclopropyl)amino)-7-azaspiro[3.5]nonan-7-yl)ethanol dihydrochloride] gave a pIC50 at LSD1 above 7.00. For the same compound, in the assay on Kasumi-1, the GI50 was below 100 nM. Besides, the negative logarithm of the EC50 (pEC50) in assay [1] is above 7.00.

The term pIC50 denotes the negative decadic logarithm of the IC50, by convention in mol/L. Read a high pIC50 as a low IC50. Broadly, the GI50 is the concentration at which growth is held to half of that of the control. As usually defined, the pEC50 is −log10 of the EC50, conventionally taken in molar units. High values mean a small EC50, low ones a large EC50.
